# Marks after values point to notes of the source that are not given here.
# How the values were obtained:
# rat = settings: oral rat; no reference given; cited from earlier work
# [1] = test system: isolated rat sciatic nerve; assay: tissue or blood
# Description: The ex vivo studies used both male and female rats weighing between 230 and 250 g. Animals were sacrificed using light anaesthesia with CO2 and cervical dislocation. The sciatic nerve of the rat, consisting of 27,000 sciatic nerve fibres, was isolated in a three-chamber recording bath (Fig. 5b). The sciatic nerves were dissected from the spinal cord to the knee, immersed in oxygenated (O2, 100%) saline solution and cleaned. The composition of the saline was (in mmoles/L): 136 NaCl, 11 glucose, 4.7 KCl, 2.4 CaCl2, 1.1 MgCl2, 1 NaHCO3, 10 HEPES, pH = 7.2). All experiments were performed at a constant temperature, 26.0±1.0°C. […] The nerve was mounted in a three-chambered recording bath made of Plexiglas, which is described elsewhere, [30]. The recording bath consisted of the recording (R in Fig. 5b), perfusion (P) and stimulating (S) chambers, each with a volume of 12 mL. The nCAP (Fig. 5a) was generated by stimulating (1 Hz) the part of the nerve in the stimulating chamber and was recorded in the recording chamber every second using standard electrophysiological methods. The nCAP was monitored throughout the experiment as an indication of the vitality of the nerve fibres in the recording bath. […] Immediately after the nCAP was eliminated, the saline+compound was removed and the nerve was washed out. Then, recovery of the nCAP in normal stagnant saline was monitored for 24 h. It is worth noting that the recording bath is designed in such a way that the chambers with the saline and 2-H (the nerves and the recording electrodes) was shielded from the air by using the cover (c in Fig. 5b) to avoid evaporation of the volatile 2-H. The saline with 2-H was added through a small diameter opening on the cover.
# For further data analysis, the amplitude of the nCAPs, estimated from baseline to peak (Fig. 5), were measured at a specific time (every 1.0 s, 1.0 min or 1.0 h) and were expressed as a percentage of the amplitude of the nCAP at t = 0 (which was considered to be 100%). In the neuropharmacological experiments, time t = 0 was considered the time before application of the compound under investigation. […] The data were fitted in the program GraphPad Prism 5.0 using a one-phase exponential decay equation for the IC50. Data were analyzed by one-way ANOVA and Bonferroni’s post hoc tests, when required. Significance was determined using Students t-test or ANOVA as appropriate (p<0.05).
# Varroa destructor = assay: Gravitational reflex of Varroa mites after topical application; format: in vivo
# Procedure: We tested 2-H on a far smaller arthropod that parasitizes honeybees, the mite, Varroa destructor. When 0.025 µL of 2-H was applied topically to the sternum of mites (n = 10) fixed ventral side up, the gravitational reflex–the rhythmic expansion of the thorax and abdomen [15]–was distorted (Fig. 3d). When the concentration was increased to 0.061 µL, the gravitational reflex completely malfunctioned and the Varroa mites (n = 10) were totally paralysed within 30–40 s (Fig. 3e) with no recovery, even after 12 h of observation. We applied larger concentrations of 2-H to the Varroa mites topically because the mites’ small size made it impossible to inject 2-H into the haemolymph.
smiles,measurement,setting,value
"CCCCCC(C)=O [2-H, 2-heptanone]",acute LD50,rat,1670 mg/kg
same,neurotoxic action in 24 h monitoring of nerve vitality,[1],no neurotoxic action
same,IT0 (time required for 100% inhibition of the nCAP),[1]; 1.41 mg/mL,517.5 ± 25.62 s
same,IT50 (time to inhibit nCAP amplitude to 50% of control),[1]; 1.41 mg/mL,109.7 ± 2.87 s
same,IT0 (time required for 100% inhibition of the nCAP),[1]; 2.28 mg/mL,358.8 ± 18.07 s
same,IT50 (time to inhibit nCAP amplitude to 50% of control),[1]; 2.28 mg/mL,108.9 ± 0.22 s
same,IT0 (time required for 100% inhibition of the nCAP),[1]; 3.41 mg/mL,221.88 ± 7.32 s
same,IT50 (time to inhibit nCAP amplitude to 50% of control),[1]; 3.41 mg/mL,39.14 ± 4.84 s
same,time to complete elimination of the nCAP,[1]; 3.41 mg/mL,221.88 s
same,IT0 (time required for 100% inhibition of the nCAP),[1]; 10 mg/mL,195 ± 12 s
same,IT50 (time to inhibit nCAP amplitude to 50% of control),[1]; 10 mg/mL,22.3 ± 1.1 s
same,IC50,"[1]; Rattus norvegicus, read-out: IC50 from concentration-response curves of the IT0 values",469 µg/mL
same,IT0,"[1]; Table 3, 3.41 mg/mL, unit not given in Table 3, s",221.88±7.32^a seconds
same,IT50,"[1]; Table 3, 3.41 mg/mL, unit not given in Table 3, seconds per Table 2",39.14 ± 4.84 s
same,recovery of nCAP amplitude after wash with normal saline,"[1]; after elimination of nCAP, remained at this level for at least 24 h, n = 8",89.51%
same,effect on gravitational reflex,"Varroa destructor; 0.025 µL applied topically to the sternum, n = 10",distorted
same,recovery from paralysis,"Varroa destructor; 0.061 µL applied topically, 12 h of observation",no recovery
